Test results as given in ChEMBL document CHEMBL1201862, “PubChem BioAssay data set” (2004).
Calls of active or inactive are those of the source.

Assays:
Type in all cases: functional
[1] = biological target: 5'-AMP-activated protein kinase catalytic subunit alpha-1 (Homo sapiens, UniProt Q13131)
[2] = biological target: Serine/threonine-protein kinase D3 (Homo sapiens, UniProt O94806);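 note: determined within a kinase panel screen, with PRKCN as the panel member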
[3] = biological target: Death-associated protein kinase 3 (Homo sapiens, UniProt O43293);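 note: measured as one member of a kinome-wide profiling panel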
[4] = biological target: LIM domain kinase 1 (Homo sapiens, UniProt P53667); assay: Navigating the Kinome. Panel member name: LIMK1
[5] = biological target: Hepatocyte growth factor receptor (Homo sapiens, UniProt P08581);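 note: kinase panel profiling across the kinome, with MET as the panel member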
[6] = biological target: Tyrosine-protein kinase ABL1 (Homo sapiens, UniProt P00519)
[7] = biological target: Leukocyte tyrosine kinase receptor (Homo sapiens, UniProt P29376); assay: Navigating the Kinome. Panel member name: LTK
Leukocyte tyrosine kinase receptor, sequence (P29376 whole entry): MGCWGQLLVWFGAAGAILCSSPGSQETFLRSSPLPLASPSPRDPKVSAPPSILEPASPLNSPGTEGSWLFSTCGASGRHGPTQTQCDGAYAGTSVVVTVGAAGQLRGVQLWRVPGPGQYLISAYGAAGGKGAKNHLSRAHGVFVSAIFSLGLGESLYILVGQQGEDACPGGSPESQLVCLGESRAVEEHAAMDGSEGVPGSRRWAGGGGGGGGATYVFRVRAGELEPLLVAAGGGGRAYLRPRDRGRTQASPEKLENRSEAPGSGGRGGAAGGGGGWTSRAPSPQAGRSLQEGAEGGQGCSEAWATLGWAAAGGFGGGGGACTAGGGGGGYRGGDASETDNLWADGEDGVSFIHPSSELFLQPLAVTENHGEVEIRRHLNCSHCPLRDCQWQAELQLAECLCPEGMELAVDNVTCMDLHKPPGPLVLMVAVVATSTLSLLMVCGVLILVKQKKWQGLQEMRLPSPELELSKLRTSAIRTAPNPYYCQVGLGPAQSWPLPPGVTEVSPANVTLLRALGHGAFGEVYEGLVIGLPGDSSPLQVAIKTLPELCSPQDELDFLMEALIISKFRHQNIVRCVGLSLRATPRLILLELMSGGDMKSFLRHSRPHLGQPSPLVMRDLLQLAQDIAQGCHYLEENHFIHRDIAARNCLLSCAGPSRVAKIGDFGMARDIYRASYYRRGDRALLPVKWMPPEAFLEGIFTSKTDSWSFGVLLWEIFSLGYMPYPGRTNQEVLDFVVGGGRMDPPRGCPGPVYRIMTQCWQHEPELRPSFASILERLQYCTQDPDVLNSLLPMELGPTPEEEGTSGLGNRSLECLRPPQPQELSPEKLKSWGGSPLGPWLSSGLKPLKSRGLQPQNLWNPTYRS

Hepatocyte growth factor receptor, sequence (P08581 whole entry): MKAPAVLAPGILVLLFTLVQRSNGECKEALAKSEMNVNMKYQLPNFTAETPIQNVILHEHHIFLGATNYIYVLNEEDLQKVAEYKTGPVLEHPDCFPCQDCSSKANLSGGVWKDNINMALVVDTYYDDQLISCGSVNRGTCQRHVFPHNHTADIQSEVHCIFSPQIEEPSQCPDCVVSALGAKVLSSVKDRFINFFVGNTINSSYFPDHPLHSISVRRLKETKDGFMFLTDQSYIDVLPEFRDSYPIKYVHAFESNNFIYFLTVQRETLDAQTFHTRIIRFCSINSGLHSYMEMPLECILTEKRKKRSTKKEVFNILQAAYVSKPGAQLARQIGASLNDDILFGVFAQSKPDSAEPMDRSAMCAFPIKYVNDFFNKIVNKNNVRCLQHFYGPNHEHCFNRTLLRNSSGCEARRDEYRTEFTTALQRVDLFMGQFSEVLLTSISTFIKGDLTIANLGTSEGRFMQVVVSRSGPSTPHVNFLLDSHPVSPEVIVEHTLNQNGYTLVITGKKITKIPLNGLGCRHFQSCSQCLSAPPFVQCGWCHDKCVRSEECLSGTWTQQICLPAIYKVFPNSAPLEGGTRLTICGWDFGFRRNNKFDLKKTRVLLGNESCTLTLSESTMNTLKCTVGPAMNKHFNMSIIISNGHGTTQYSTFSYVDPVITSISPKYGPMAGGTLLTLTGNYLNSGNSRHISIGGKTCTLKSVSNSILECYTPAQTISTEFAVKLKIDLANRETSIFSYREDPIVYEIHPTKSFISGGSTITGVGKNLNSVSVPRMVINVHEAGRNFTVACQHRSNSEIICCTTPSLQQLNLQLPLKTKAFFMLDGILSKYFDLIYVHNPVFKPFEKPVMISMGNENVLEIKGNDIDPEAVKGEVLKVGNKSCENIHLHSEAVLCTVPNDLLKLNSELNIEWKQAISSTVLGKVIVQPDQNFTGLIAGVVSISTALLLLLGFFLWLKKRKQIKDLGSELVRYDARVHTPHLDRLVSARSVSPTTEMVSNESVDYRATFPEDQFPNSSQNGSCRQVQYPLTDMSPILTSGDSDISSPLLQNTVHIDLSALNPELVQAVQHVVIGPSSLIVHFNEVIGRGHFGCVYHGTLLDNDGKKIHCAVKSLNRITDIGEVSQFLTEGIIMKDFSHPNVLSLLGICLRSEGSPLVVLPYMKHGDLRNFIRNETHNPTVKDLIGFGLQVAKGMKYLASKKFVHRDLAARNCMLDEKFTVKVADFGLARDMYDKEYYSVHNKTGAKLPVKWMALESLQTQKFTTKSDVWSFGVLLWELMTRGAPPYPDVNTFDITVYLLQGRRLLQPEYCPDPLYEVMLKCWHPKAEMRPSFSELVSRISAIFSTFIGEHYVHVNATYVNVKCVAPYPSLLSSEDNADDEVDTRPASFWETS
Death-associated protein kinase 3, sequence (O43293 whole entry, the tested form may be a part): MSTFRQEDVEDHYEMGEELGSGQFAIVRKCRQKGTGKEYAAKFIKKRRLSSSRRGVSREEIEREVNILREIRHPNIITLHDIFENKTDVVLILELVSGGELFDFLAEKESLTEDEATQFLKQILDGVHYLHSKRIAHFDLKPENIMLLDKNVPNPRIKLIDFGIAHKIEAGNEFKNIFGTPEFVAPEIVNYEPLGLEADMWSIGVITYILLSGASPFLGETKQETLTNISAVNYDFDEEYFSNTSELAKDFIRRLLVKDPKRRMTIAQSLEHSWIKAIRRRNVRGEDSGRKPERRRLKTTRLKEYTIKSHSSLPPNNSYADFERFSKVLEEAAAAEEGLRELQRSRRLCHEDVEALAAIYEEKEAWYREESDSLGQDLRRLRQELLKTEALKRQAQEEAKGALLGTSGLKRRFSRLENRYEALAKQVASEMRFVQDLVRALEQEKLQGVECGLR
Serine/threonine-protein kinase D3, sequence (O94806 whole entry): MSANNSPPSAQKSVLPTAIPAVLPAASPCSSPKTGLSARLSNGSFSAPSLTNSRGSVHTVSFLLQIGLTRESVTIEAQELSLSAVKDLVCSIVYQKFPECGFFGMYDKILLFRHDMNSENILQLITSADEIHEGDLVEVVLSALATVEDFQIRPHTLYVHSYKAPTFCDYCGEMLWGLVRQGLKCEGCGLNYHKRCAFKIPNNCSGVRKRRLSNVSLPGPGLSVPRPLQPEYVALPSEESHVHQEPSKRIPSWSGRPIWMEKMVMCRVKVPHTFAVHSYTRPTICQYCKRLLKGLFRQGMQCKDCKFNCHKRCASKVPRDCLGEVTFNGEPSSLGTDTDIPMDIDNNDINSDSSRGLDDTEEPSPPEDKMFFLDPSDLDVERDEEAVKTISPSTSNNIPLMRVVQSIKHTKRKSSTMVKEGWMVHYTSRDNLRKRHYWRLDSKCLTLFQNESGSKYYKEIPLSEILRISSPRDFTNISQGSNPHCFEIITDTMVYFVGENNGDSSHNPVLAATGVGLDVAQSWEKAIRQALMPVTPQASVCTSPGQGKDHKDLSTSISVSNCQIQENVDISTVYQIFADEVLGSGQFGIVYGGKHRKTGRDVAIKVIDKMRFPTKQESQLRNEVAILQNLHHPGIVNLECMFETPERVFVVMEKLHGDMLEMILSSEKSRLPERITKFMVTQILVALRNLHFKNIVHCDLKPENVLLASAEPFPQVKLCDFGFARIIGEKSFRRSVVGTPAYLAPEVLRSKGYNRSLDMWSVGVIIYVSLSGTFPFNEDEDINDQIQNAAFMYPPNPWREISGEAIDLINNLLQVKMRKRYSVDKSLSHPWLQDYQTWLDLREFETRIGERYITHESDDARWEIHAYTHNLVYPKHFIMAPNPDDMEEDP
LIM domain kinase 1, sequence (P53667 whole entry, the tested form may be a part): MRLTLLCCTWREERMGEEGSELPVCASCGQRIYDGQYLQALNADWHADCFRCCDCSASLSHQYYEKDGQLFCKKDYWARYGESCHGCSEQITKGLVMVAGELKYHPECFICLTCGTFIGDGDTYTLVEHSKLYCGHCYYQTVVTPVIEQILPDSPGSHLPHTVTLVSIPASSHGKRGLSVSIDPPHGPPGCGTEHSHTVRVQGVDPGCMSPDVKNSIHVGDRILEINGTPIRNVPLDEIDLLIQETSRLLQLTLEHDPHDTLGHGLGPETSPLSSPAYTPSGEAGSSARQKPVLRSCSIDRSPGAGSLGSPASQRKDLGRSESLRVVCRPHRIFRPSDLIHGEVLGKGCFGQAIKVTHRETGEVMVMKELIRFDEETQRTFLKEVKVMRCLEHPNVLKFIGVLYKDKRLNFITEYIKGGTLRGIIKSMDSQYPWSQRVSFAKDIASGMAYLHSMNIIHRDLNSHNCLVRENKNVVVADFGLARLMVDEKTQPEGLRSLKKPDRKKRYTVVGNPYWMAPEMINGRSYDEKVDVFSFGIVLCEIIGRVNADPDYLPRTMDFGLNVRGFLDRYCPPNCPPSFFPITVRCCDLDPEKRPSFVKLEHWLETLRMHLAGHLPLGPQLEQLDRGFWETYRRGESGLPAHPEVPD
5'-AMP-activated protein kinase catalytic subunit alpha-1, sequence (Q13131 whole entry): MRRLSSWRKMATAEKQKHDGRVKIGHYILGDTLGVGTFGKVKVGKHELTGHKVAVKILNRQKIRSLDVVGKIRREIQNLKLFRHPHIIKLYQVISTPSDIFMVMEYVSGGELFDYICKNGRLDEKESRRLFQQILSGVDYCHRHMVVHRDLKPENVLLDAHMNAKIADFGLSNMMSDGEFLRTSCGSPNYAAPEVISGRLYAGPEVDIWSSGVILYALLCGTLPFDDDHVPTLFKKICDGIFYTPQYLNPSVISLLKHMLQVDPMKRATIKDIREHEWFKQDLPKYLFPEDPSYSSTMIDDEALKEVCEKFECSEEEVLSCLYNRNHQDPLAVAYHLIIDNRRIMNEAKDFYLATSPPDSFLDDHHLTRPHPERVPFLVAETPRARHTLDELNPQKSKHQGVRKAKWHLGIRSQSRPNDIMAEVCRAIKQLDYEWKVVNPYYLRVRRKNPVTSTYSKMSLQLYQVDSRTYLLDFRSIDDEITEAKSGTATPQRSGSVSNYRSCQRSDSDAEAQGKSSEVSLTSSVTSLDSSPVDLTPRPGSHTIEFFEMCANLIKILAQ

In the case of `O=C(NCCc1cccs1)N1CC=C(c2c[nH]c3ncccc23)CC1`, the Ki [1] was 2 µM (active), the Ki [2] was > 3.98 µM (inactive) and the Ki [3] was 3.98 µM (active). For the same compound, the Ki [4] was > 3.16 µM (inactive), the Ki [5] was > 2.51 µM (inactive) and the Ki [6] was > 2.51 µM (inactive). The Ki [7] was > 2.51 µM (inactive).
